In patent US8715731B2, “Process of reducing the bitter taste of water soluble actives by co-grinding the active with β cyclodextrin” (ISP Investments Inc., priority 2006, dated 2014):
Converted amounts (≈) assume the structure as drawn.

Experiment: physchem
Conditions: water
Description: The degree of formation of an inclusion complex between the drug and β-cyclodextrin was determined quantitatively by Differential Scanning Calorimetry (DSC).

**Q.** With NC(N)=Nc1nc(CSCCC(N)=NS(N)(=O)=O)cs1 [famotidine] as the compound, how does the solubility read?
**A.** 1000 µg/mL (≈ 2960 µM)
